Measured values from patent US8399440B2, “Disease modifying anti-arthritic activity of 2-methoxyestradiol” (EntreMed, Inc., priority 2006, dated 2013).

Columns and labels:
[1] = tested on: lymph node cells; assay: Ex vivo proliferation of lymph node cells from treated rats
Protocol: (§1) Because of the effect of 2ME2 treatment on arthritis severity and the response in the spleen during AA, the T lymphocyte reactivity to mitogens the Mycobacterial purified protein derivative (PPD) antigen was evaluated. […] The effect of various concentrations of 2ME2 in vitro on this proliferative response was evaluated. […] To further assess the effect of 2ME2 on lymphocyte responsiveness, lymph node cells harvested from rats treated with 2ME2 (30 mg/kg/d) from day 6-14 post-immunization were tested for proliferative response to PPD and the mitogens, Con A and PHA and compared to lymphocytes from vehicle-treated animals.

[2] = tested on: PMNL migration to arthritic joints; assay: 51Cr-labeled PMNL migration to arthritic joints; type: in vivo, Rat (Lewis)
Text: Rat blood PMNL were isolated from a donor arthritic rat by hydroxyethyl starch (Hespan; Dupont Merck, Wilmington, Del.) exchange transfusion performed through a needle inserted in a femoral vein. The exchanged blood was collected into heparin and acid-citrate-dextrose (ACD, formula A; Fenwal-Travenol, Malton, ON) and the leukocyte-rich plasma was harvested during 1 g sedimentation of red blood cells. The PMNL were then isolated by centrifugation on discontinuous Percoll density gradients of 63% Percoll above 74% Percoll with 10% autologous plasma and calcium and magnesium-free Tyrode's solution (TyS^−/−) for the balance of the suspending medium. After centrifugation (350×g, 30 min at 22° C.) the purified PMNL (>95%) were harvested from the layer above the 74% plasma-Percoll cushion and after washing with TyS^−/−−10% plasma, the cells were radiolabeled with 75 μCi/5×10^7 cells of Na2^51CrO4 (GE Healthcare Bio-Sciences Inc., Baie d'Urfé, QC). After the cells were washed, they were injected i.v. into rats at a dose of 10^7 51Cr-labeled PMNL per animal bearing approximately 1-2×10^5 cpm. These cells were allowed to circulate and migrate for 2 h prior to sacrifice of the rats.
At the time the rats were killed, cardiac blood was obtained to measure the blood leukocyte count and the leukocyte and plasma associated radioactivity. Joints were dissected and segments of limbs sectioned to include carpal, metacarpal, talar and metatarsal joints for analysis as previously reported (Issekutz et al. Lab Invest. (1991), 64:656-63 and Issekutz et al. Arthritis Rheum. (2001), 44:1428-37). The content of ^51Cr in the joints, as well as in dermal skin sites and internal organs, was determined with a Wallac LKB 1280 gamma counter (Fisher Scientific, Nepean, ON). Accumulated isotope in the tissue was expressed as cpm/10^6 cpm injected i.v.

[3] = tested on: PMNL migration to dermal inflammatory reactions; assay: 51Cr-labeled PMNL migration to dermal inflammatory reactions; type: in vivo, Rat (Lewis)
Text: Rat blood PMNL were isolated from a donor arthritic rat by hydroxyethyl starch (Hespan; Dupont Merck, Wilmington, Del.) exchange transfusion performed through a needle inserted in a femoral vein. The exchanged blood was collected into heparin and acid-citrate-dextrose (ACD, formula A; Fenwal-Travenol, Malton, ON) and the leukocyte-rich plasma was harvested during 1 g sedimentation of red blood cells. The PMNL were then isolated by centrifugation on discontinuous Percoll density gradients of 63% Percoll above 74% Percoll with 10% autologous plasma and calcium and magnesium-free Tyrode's solution (TyS^-/-) for the balance of the suspending medium. […] After the cells were washed, they were injected i.v. into rats at a dose of 10^7 51Cr-labeled PMNL per animal bearing approximately 1-2×10^5 cpm. These cells were allowed to circulate and migrate for 2 h prior to sacrifice of the rats. […] List Biologicals, Campbell, Calif.) or zymosan-activated serum (rat) as a source of […].^22 2 h before sacrifice, administered in the doses indicated at the same time as the i.v. injection of radiolabeled PMNL. The accumulation of PMNL in these sites was quantified by biopsy of the injection sites using a 12-mm punch biopsy taken following sacrifice of the animals. At the time the rats were killed, cardiac blood was obtained to measure the blood leukocyte count and the leukocyte and plasma associated radioactivity. Joints were dissected and segments of limbs sectioned to include carpal, metacarpal, […] metatarsal joints for analysis as previously reported (Issekutz et al. Lab Invest. (1991), 64:656-63 and Issekutz et al. Arthritis Rheum. (2001), 44:1428-37). The content of ^51Cr in the joints, as well as in dermal skin sites and internal organs, was determined with a Wallac LKB 1280 gamma counter (Fisher Scientific, Nepean, ON). Accumulated isotope in the tissue was expressed as cpm/10^6 cpm injected i.v. In the same rats, the migration of PMNL to dermal inflammatory reactions was measured, these reactions being initiated at the time of radiolabeled PMNL injection. Thus the migration quantitated the acute reaction during the first two hours of the lesions.

[4] = Steady-state PK in study SMP05-010; type: in vivo, Mouse (Balb/C)
[5] = tested on: Collagen-Induced Arthritis; assay: Collagen-induced arthritis (UCLA studies); type: in vivo, Rat (Louvain)
[6] = tested on: synovial microvessels; assay: Synovial vascularity by laminin immunostaining; type: in vivo, Rat (Lewis); conditions: between the various treatment groups and vehicle, any vessel size
Protocol: Tissue samples, including joints, were fixed in 10% phosphate-buffered formalin or AFA fixative ([…], 2% formalin, 5% glacial acetic acid, 20% water), the latter for immunostaining. Samples were then decalcified in formic or acetic acid and paraffin embedded. Sections (5 μm) were stained with hematoxylin-eosin (H&E) using routine techniques. To stain cartilage proteoglycan, separate sections were stained with safranin O (Difco, Detroit, Mich.) for 1 min. as described previously (Issekutz, (2001). To assess microvessel density in the synovium, rabbit anti-mouse laminin polyclonal IgG antibody (Cedarlane Laboratories Limited, Homby, ON) was used to outline vessels, with detection using biotinylated goat anti-rabbit IgG antibody and avidin-biotin complexed with HRPO according to manufacturer's recommendations (Vectastain Elite ABC kit; Vector Laboratories Canada Inc., Burlington, ON).
To assess synovial vascularity and angiogenesis, sections were immunostained for laminin to reliably delineate microvessels as well as medium-sized vessels. […] The other commonly used endothelial cell marker, CD31, was also evaluated on the synovial tissue. […] This vascularity was quantitated in synovia from rats treated with the various protocols and compared to vehicle-treated animals. […] Only vessels that were in cross-section were scored. […]

[7] = tested on: lymph node cells from rats with AA; assay: Lymph node cell proliferation in vitro (3H-thymidine incorporation)
Protocol: as §1

COc1cc2c(cc1O)CC[C@@H]1[C@@H]2CC[C@]2(C)[C@@H](O)CC[C@@H]12 [2ME2, 2-methoxyestradiol]
proliferative response to PPD (DNA incorporation) ([1]; lymphocytes from rats given 30 mg/kg/d day 6-14, compared to vehicle-treated): significantly reduced | proliferation induced by Con A or PHA ([1]; lymphocytes from rats given 30 mg/kg/d day 6-14, no 2ME2 added to cultures): no difference | accumulation of 51Cr-labeled PMNL in hind limb joints ([2]; 100 or 30 mg/kg/d initiated at day 6 (preclinical phase)): significantly decreased | immune cell migration to the joint ([2]; Dalhousie Study #1, 30, 100 mg/kg/d PO): Blocked | accumulation of 51Cr-labeled PMNL in joints ([2]; delayed treatment starting on day 10, tendency for a decrease): did not reach significance | PMNL migration to E. coli LPS ([3]; dermal sites, 2 h migration): did not affect | PMNL migration to complement chemotactic factor C5ades-arg ([3]; dermal sites, 2 h migration): did not affect | inhibition of PMNL migration to sites injected with rat TNF-α ([3]; either dose tested (30 or 100 mg/kg/d), starting at day 6 post-immunization): approximately 50% | inhibition of PMNL migration to sites injected with rat TNF-α ([3]; treatment delayed to day 10, tendency for inhibition): did not reach significance | Steady-state AUC0-24 ([4]; 25 mg/kg PO): 66 ng·h/mL | Steady-state AUC0-24 ([4]; 50 mg/kg PO): 117 ng·h/mL | onset of disease ([5]; UCLA Study #1, PO): Delays onset | inhibition of clinical arthritic score and bone erosion ([5]; UCLA Study #1, prevention 30, 100 mg/kg/d PO, treatment 10, 30, 100 mg/kg/d PO): Dose dependent | inhibition of clinical arthritic score, inflammation, and bone erosion, cartilage degradation and pannus formation ([5]; UCLA Study #2, treatment from day 10, 50 mg/kg BID, 100 or 300 mg/kg/d PO or 60 mg/kg/d SC osmotic pumps): Dose dependent | vessel density per 0.8 mm^2 (small, medium, large vessels) in synovium [6]: no significant difference | IC50, lymphocyte response to PPD ([7]; 2ME2 added on day of culture initiation, 6 days): about 0.3 μg/mL | viability ([7]; all cultures): ≥ 85 % live cells | spontaneous proliferation in unstimulated cultures ([7]; in vitro): decreased | proliferation induced by the mitogens (Con A, PHA) ([7]; in vitro, compared with effect on PPD response): comparable inhibitory effect | effect on viability ([7]; lymph node cell cultures): no effect on viability
